Measured values from PubChem BioAssay (NCI).
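Dose response: 5 concentrations. Exposure: 48 h. Format: 96-well plates. Endpoint: linear interpolation; highest concentration if not reached. TGI: total growth inhibition.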

Columns and labels:
Test in all cases: NCI tumour cell line growth inhibition, 48 h
MDA-MB-435 = system: MDA-MB-435
BT-549 breast = system: BT-549 breast
HCC-2998 colon = system: HCC-2998 colon
HOP-62 NSCLC = system: HOP-62 NSCLC
COLO 205 colon = system: COLO 205 colon
HL-60(TB) leukemia = system: HL-60(TB) leukemia
CCRF-CEM leukemia = system: CCRF-CEM leukemia
IGROV1 ovarian = system: IGROV1 ovarian
SF-539 CNS = system: SF-539 CNS
HT29 colon = system: HT29 colon
NCI/ADR-RES ovarian = system: NCI/ADR-RES ovarian
UACC-62 melanoma = system: UACC-62 melanoma
HOP-92 NSCLC = system: HOP-92 NSCLC
K-562 leukemia = system: K-562 leukemia
SK-OV-3 ovarian = system: SK-OV-3 ovarian
CAKI-1 renal = system: CAKI-1 renal
OVCAR-5 ovarian = system: OVCAR-5 ovarian
SF-268 CNS = system: SF-268 CNS
PC-3 prostate = system: PC-3 prostate
HS 578T breast = system: HS 578T breast
HCT-116 colon = system: HCT-116 colon
OVCAR-3 ovarian = system: OVCAR-3 ovarian
M14 melanoma = system: M14 melanoma
SR leukemia = system: SR leukemia
SK-MEL-28 melanoma = system: SK-MEL-28 melanoma
OVCAR-4 ovarian = system: OVCAR-4 ovarian
HCT-15 colon = system: HCT-15 colon
OVCAR-8 ovarian = system: OVCAR-8 ovarian
SNB-75 CNS = system: SNB-75 CNS
SN12C renal = system: SN12C renal
NCI-H23 lung = system: NCI-H23 lung
UACC-257 melanoma = system: UACC-257 melanoma
SK-MEL-5 melanoma = system: SK-MEL-5 melanoma
NCI-H460 lung = system: NCI-H460 lung
TK-10 renal = system: TK-10 renal
MCF7 breast = system: MCF7 breast
EKVX NSCLC = system: EKVX NSCLC
NCI-H522 lung = system: NCI-H522 lung
MDA-N = system: MDA-N
SF-295 CNS = system: SF-295 CNS
LOX IMVI melanoma = system: LOX IMVI melanoma
MDA-MB-231 breast = system: MDA-MB-231 breast
MALME-3M melanoma = system: MALME-3M melanoma
SNB-19 CNS = system: SNB-19 CNS
MOLT-4 leukemia = system: MOLT-4 leukemia
SK-MEL-2 melanoma = system: SK-MEL-2 melanoma
NCI-H226 lung = system: NCI-H226 lung
786-0 renal = system: 786-0 renal
U251 CNS = system: U251 CNS
ACHN renal = system: ACHN renal
RPMI-8226 leukemia = system: RPMI-8226 leukemia
KM12 colon = system: KM12 colon
A549 NSCLC = system: A549 NSCLC
SW-620 colon = system: SW-620 colon
UO-31 renal = system: UO-31 renal
RXF 393 renal = system: RXF 393 renal
A498 renal = system: A498 renal
DU-145 prostate = system: DU-145 prostate

CC(=O)N(C(C)=O)n1c(Cc2ccc(Cl)cc2)n[nH]c1=O
TGI (MDA-MB-435): > 100 µM | TGI (BT-549 breast): > 100 µM | TGI (HCC-2998 colon): > 100 µM | TGI (HOP-62 NSCLC): 98.8 µM | TGI (COLO 205 colon): > 100 µM | TGI (HL-60(TB) leukemia): > 100 µM | TGI (CCRF-CEM leukemia): > 100 µM | TGI (IGROV1 ovarian): > 100 µM | TGI (SF-539 CNS): > 100 µM | TGI (HT29 colon): > 100 µM | TGI (NCI/ADR-RES ovarian): > 100 µM | TGI (UACC-62 melanoma): > 100 µM | TGI (HOP-92 NSCLC): > 100 µM | TGI (K-562 leukemia): > 100 µM | TGI (SK-OV-3 ovarian): > 100 µM | TGI (CAKI-1 renal): > 100 µM | TGI (OVCAR-5 ovarian): > 100 µM | TGI (SF-268 CNS): > 100 µM | TGI (PC-3 prostate): > 100 µM | TGI (HS 578T breast): > 100 µM | TGI (HCT-116 colon): > 100 µM | TGI (OVCAR-3 ovarian): > 100 µM | TGI (M14 melanoma): > 100 µM | TGI (SR leukemia): > 100 µM | TGI (SK-MEL-28 melanoma): > 100 µM | TGI (OVCAR-4 ovarian): > 100 µM | TGI (HCT-15 colon): > 100 µM | TGI (OVCAR-8 ovarian): > 100 µM | TGI (SNB-75 CNS): > 100 µM | TGI (SN12C renal): > 100 µM | TGI (NCI-H23 lung): > 100 µM | TGI (UACC-257 melanoma): > 100 µM | TGI (SK-MEL-5 melanoma): > 100 µM | TGI (NCI-H460 lung): > 100 µM | TGI (TK-10 renal): > 100 µM | TGI (MCF7 breast): > 100 µM | TGI (EKVX NSCLC): > 100 µM | TGI (NCI-H522 lung): > 100 µM | TGI (MDA-N): > 100 µM | TGI (SF-295 CNS): > 100 µM | TGI (LOX IMVI melanoma): > 100 µM | TGI (MDA-MB-231 breast): > 100 µM | TGI (MALME-3M melanoma): > 100 µM | TGI (SNB-19 CNS): > 100 µM | TGI (MOLT-4 leukemia): > 100 µM | TGI (SK-MEL-2 melanoma): > 100 µM | TGI (NCI-H226 lung): > 100 µM | TGI (786-0 renal): > 100 µM | TGI (U251 CNS): > 100 µM | TGI (ACHN renal): > 100 µM | TGI (RPMI-8226 leukemia): > 100 µM | TGI (KM12 colon): > 100 µM | TGI (A549 NSCLC): > 100 µM | TGI (SW-620 colon): > 100 µM | TGI (UO-31 renal): > 100 µM | TGI (RXF 393 renal): > 100 µM | TGI (A498 renal): > 100 µM | TGI (DU-145 prostate): > 100 µM
